From publication PMC11510342, “Synthesis, Characterization, Bioavailability and Antimicrobial Studies of Cefuroxime-Based Organic Salts and Ionic Liquids” (Pharmaceutics, 2024)
Like-named read-outs stand apart in the source and are kept apart here.

How the values were obtained:
[1] = Octanol-water partition studies (Kow); format: physicochemical
3T3 murine fibroblasts = test: Cytotoxicity on 3T3 cells (MTT assay); format: cell-based; details: 24 h; for Toxicity to 3T3 murine fibroblasts compared with the original drug (CFX): 100 µM; for IC50: read-out: IC50 for toxicity on 3T3 murine fibroblasts
Experimental: Cytotoxic activities were evaluated on 3T3 cells previously acquired from Leibniz Institute DSMZ, Germany biobank (ACC173). Cells were cultured in Dulbecco’s Modified Eagle’s medium: Nutrient Mix F-12 (DMEM/F-12) (Merck, Darmstadt, Germany) supplemented with 10% fetal bovine serum (Gibco, Grand Island, NY, USA), 100 IU/mL penicillin and 100 μg/mL streptomycin (Sigma, St. Louis, MO, USA). For subculture, 3T3 cells were dissociated using trypsin-EDTA (Sigma, USA) with a split 1:5 ratio and seeded into Petri dishes with 25 cm^2 of growth area. Culture medium was replaced every 2 days until cells reached total confluence after 3–5 days of initial seeding. Cells were maintained in a humidified atmosphere with 5% CO2 at 37 °C. The effects on 3T3 cells’ viability were evaluated after cells reached total confluence. […] The effects were estimated via MTT (Sigma, St. Louis, MO, USA) assays as a cellular metabolic activity colorimetric analysis. Results were expressed in percentage of control (%).

[2] = test system: Pseudomonas aeruginosa (ATCC 27853); test: Antimicrobial activity, growth inhibition (OD 600 nm); format: cell-based; details: for IC50: read-out: IC50 P. aeruginosa
Experimental: (§1) The antimicrobial activity of compounds was evaluated against Bacillus subtilis (ATCC 6633), Pseudomonas aeruginosa (ATCC 27853) and Escherichia coli (ATCC 25922) grown in Lysogeny broth (Sigma, Darmstadt, Germany).

[3] = test system: Bacillus subtilis (ATCC 6633); test: as above; format: cell-based; details: for IC50: read-out: IC50 B. subtilis
Experimental: as §1

[4] = Water solubility at 37 °C by consecutive addition of water until full dissolution; format: physicochemical
Experimental: The solubility of the prepared cefuroxime OSILs was determined by adding known volumes of water consecutively to a certain amount of CFX-OSILs at 37 °C until full dissolution was observed. Figure 3 presents the maximum water solubility values of the prepared CFX-OSILs.

[5] = test system: Escherichia coli (ATCC 25922); test: Antimicrobial activity, growth inhibition (OD 600 nm); format: cell-based; details: for IC50: read-out: IC50 E. coli
Experimental: as §1

[6] = cited from earlier work
[7] = 6 h, 0.03–100 µM, interval in brackets
[8] = Mus musculus, Fibroblast, MTT, 1–100 µM
[9] = Pseudomonas aeruginosa, ATCC27853, 6 h, 0.03–100 µM, interval in brackets
[10] = Bacillus subtilis, ATCC6633, 6 h, 0.03–100 µM, interval in brackets
[11] = Escherichia coli, ATCC25922, 6 h, 0.03–100 µM, interval in brackets

Compound: CCCCCCCCCCCCCCCC[n+]1ccccc1.CO/N=C(\C(=O)N[C@H]1C(=O)N2C(C(=O)[O-])=C(COC(N)=O)CS[C@@H]12)c1ccco1 [[C16Py][CFX]]
- Octanol-water partition (Kow) [1]: 2.5
- Toxicity to 3T3 murine fibroblasts compared with the original drug (CFX) (3T3 murine fibroblasts; MTT): more toxic
- IC50 (3T3 murine fibroblasts; MTT, 1–100 µM): 11.7 µM
- IC50 [2, 7]: 4.54 µM
- IC50 [3, 7]: 5.08 µM
- Increase in water solubility relative to free CFX [4]: > 7.7 fold
- Water solubility [4]: 5500 µg/mL
- IC50 [5, 7]: 9.66 µM

Compound: CCCCCCCCCC[n+]1ccccc1.CO/N=C(\C(=O)N[C@@H]1C(=O)N2C(C(=O)[O-])=C(COC(N)=O)CS[C@H]12)c1ccco1 [[C10Py][CFX]]
- Kow in comparison with the original drug (CFX) [1]: approximately four-times greater
- Toxicity to 3T3 murine fibroblasts compared with the original drug (CFX) (3T3 murine fibroblasts; MTT): more toxic
- Relative toxicity on 3T3 cells (comparison of IC50 values) (3T3 murine fibroblasts; MTT): approximately five-times less toxic
- IC50 (3T3 murine fibroblasts; MTT, 1–100 µM): 62.5 µM
- IC50 [2, 7]: 16.6 µM
- IC50 [3, 7]: 23 µM
- Increase in water solubility relative to free CFX [4]: > 7.7 fold
- Water solubility [4]: 5400 µg/mL
- IC50 [5, 7]: 90.3 µM

Compound: CCCCCCCCCC[n+]1ccccc1 [[C10Py]Br, reference compound]
- IC50 (3T3 murine fibroblasts; [8]): 98 µM
- IC50 [2, 9]: 95.5 µM
- IC50 [3, 10]: 80.9 µM
- IC50 [5, 11]: > 100 µM

Compound: CCCCCC[n+]1ccccc1 [[C6Py]Br, reference compound]
- IC50 (3T3 murine fibroblasts; [8]): > 100 µM
- IC50 [2, 9]: > 100 µM
- IC50 [3, 10]: > 100 µM
- IC50 [5, 11]: > 100 µM

Compound: CCCCCC[n+]1ccccc1.CO/N=C(\C(=O)N[C@@H]1C(=O)N2C(C(=O)[O-])=C(COC(N)=O)CS[C@H]12)c1ccco1 [[C6Py][CFX]]
- Toxicity to 3T3 murine fibroblasts compared with the original drug (CFX) (3T3 murine fibroblasts; MTT): no additional detrimental effect
- IC50 (3T3 murine fibroblasts; MTT, 1–100 µM): > 100 µM
- IC50 [2, 7]: 3.99 µM
- IC50 [3, 7]: 8.85 µM
- IC50 [5, 7]: 26.8 µM

Compound: c1cc[n+](CCCCCCCCCC[n+]2ccccc2)cc1 [[PyC10Py]Br2, decylbispyridinium dibromide, reference compound]
- IC50 (3T3 murine fibroblasts; Mus musculus, Fibroblast): > 100 µM
- IC50 ([2]; Pseudomonas aeruginosa, ATCC27853, 6 h): > 100 µM
- IC50 ([3]; Bacillus subtilis, ATCC6633, 6 h): > 100 µM
- IC50 ([5]; Escherichia coli, ATCC25922, 6 h): > 100 µM

Compound: CO/N=C(\C(=O)N[C@@H]1C(=O)N2C(C(=O)[O-])=C(COC(N)=O)CS[C@H]12)c1ccco1.CO/N=C(\C(=O)N[C@@H]1C(=O)N2C(C(=O)[O-])=C(COC(N)=O)CS[C@H]12)c1ccco1.c1cc[n+](CCCCCCCCCC[n+]2ccccc2)cc1 [[PyC10Py][CFX]2]
- Toxicity to 3T3 murine fibroblasts compared with the original drug (CFX) (3T3 murine fibroblasts; MTT): no additional detrimental effect
- IC50 (3T3 murine fibroblasts; MTT, 1–100 µM): > 100 µM
- Antimicrobial activity against P. aeruginosa compared with CFX [2]: comparable activity to CFX
- IC50 [2, 7]: 0.66 µM
- Antimicrobial activity against B. subtilis compared with CFX [3]: comparable activity to CFX
- IC50 [3, 7]: 0.85 µM
- Water solubility ([4]; water, 37 °C): 140000 µg/mL
- IC50 [5, 7]: 4.92 µM
- Antimicrobial activity against E. coli compared with CFX ([5]; times more effective than CFX): 1.3

Compound: CO/N=C(\C(=O)N[C@@H]1C(=O)N2C(C(=O)OC(C)OC(C)=O)=C(COC(N)=O)CS[C@H]12)c1ccco1 (some centres unmarked) [cefuroxime axetil]
- Time of peak concentration in serum ([6]; after oral administration): approximately 2 h

Compound: CCCCCCCCCCCCCCCC[n+]1ccn(C)c1.CO/N=C(\C(=O)N[C@@H]1C(=O)N2C(C(=O)[O-])=C(COC(N)=O)CS[C@H]12)c1ccco1 [[C16MIM][CFX]]
- Octanol-water partition (Kow) [1]: 1.7
- Toxicity to 3T3 murine fibroblasts compared with the original drug (CFX) (3T3 murine fibroblasts; MTT): more toxic
- IC50 (3T3 murine fibroblasts; MTT, 1–100 µM): 13.9 µM
- IC50 [2, 7]: 4.02 µM
- IC50 [3, 7]: 2.65 µM
- Water solubility [4]: 11000 µg/mL
- IC50 [5, 7]: 9.23 µM

Compound: CCCCCCCCCCCCCCCC[n+]1ccn(C)c1 [[C16MIM]Br, reference compound]
- IC50 (3T3 murine fibroblasts; [8]): 13.3 µM
- IC50 [2, 9]: 4.81 µM
- IC50 [3, 10]: 5.19 µM
- IC50 [5, 11]: 11.3 µM

Compound: CO/N=C(\C(=O)N[C@@H]1C(=O)N2C(C(=O)O)=C(COC(N)=O)CS[C@H]12)c1ccco1 [CFX, Cefuroxime]
- IC50 (3T3 murine fibroblasts; [8]): > 100 µM
- IC50 [2, 9]: 0.55 µM
- IC50 [3, 10]: 0.95 µM
- solubility ([4]; water, 37 °C): < 700 µg/mL
- IC50 [5, 11]: 6.42 µM

Compound: CO/N=C(\C(=O)N[C@@H]1C(=O)N2C(C(=O)O)=C(COC(N)=O)CS[C@H]12)c1ccco1 [cefuroxime sodium]
- Serum concentration ([6]; single 500 mg intramuscular dose, for a period of 2.5 to 3 h): 8000 ng/mL
- Half-life ([6]; single 500 mg intramuscular dose): 1.17 h
